Structures can show the parent of a compound that is named as a salt.
Assays:
[1] = test system: human A431 (human epidermoid carcinoma cell line) xenograft tumor; assay: Tumor inhibition on human A431 xenograft in nude mice; assay type: in vivo, BALB/C nude mice
Description: This was a preliminary study to compare Icotinib hydrochloride Crystalline Form I with erlotinib hydrochloride on inhibition of human A431 (human epidermoid carcinoma cell line) xenograft tumor.
Methods: The high EGFR-expressing human A431 (human epidermoid carcinoma cell line) cell line was selected for the xenograft study.
Tumor transplantation method: A431 human epidermoid cancer cells were inoculated subcutaneously in the right armpit of BALB/C nude mice to generate tumor nodules. These nodules were harvested, cut into 6 mm^3 blocks for routine inoculation and implanted into each mouse for the study. When tumors reached approximately 20 mm^3 in size (6-7 days), the animals were randomly divided into 4 groups of 6-9 animals/each group and body weights were recorded. The groups consisted of a control group (no drug treatment), an erlotinib hydrochloride treatment group (200 mg/kg) and high and low dose Icotinib hydrochloride Crystalline Form I treatment groups (200 and 50 mg/kg). Drugs were administered by oral gavage once daily; dosing frequency depended on the individual case for tumor growth. Tumor volume [tumor volume (V)=tumor size (L)×short diameter of tumor (S)^2/2] was measured using calipers once every 3 days. The animals were sacrificed 24-hour after the last drug administration and weighed. The tumor was removed and weighed to accurately calculate the tumor size. All group data was analyzed using the t test. If the p value was <0.05, it was considered to be statistically significant. Efficacy determination: tumor inhibition rate=[1−treatment group mean tumor weight (T)/control group mean tumor weight (C)]×100%

[2] = Pharmacokinetic study of the different crystalline forms and the free base in rats; assay type: in vivo, Wistar rats; details: fasted Wistar rats, oral suspension, dose equivalent to 35 mg/kg Icotinib hydrochloride, plasma
Method: Drugs and reagents: Icotinib (free base) and Icotinib hydrochloride crystalline forms I, II, III, and IV were ground to fine particles. The material content (purity) was not less than 99.0%. Sodium carboxymethyl cellulose was medical supply graded. Experimental animals: Wistar rats, male and female, 150-220 g each. Pharmaceutical preparation: Weigh the appropriate amount of each substance and add sodium carboxymethyl cellulose to 0.5%. Prepare a suspension at a final concentration of 3.5 mg/mL in water. Administration and sample collection: Each suspension was administered orally to fasted Wistar rats at a dose equivalent to 35 mg/kg Icotinib hydrochloride in a dose volume of 10 ml/kg. […] After purification, samples were analyzed by high performance liquid chromatography. The chromatographic conditions utilized C18-silane bonded silica as stationary phase, 0.02 mol/L of sodium dihydrogen phosphate in acetonitrile (40:60, using sodium hydroxide solution to adjust pH to 5.0) as the mobile phase and a detection wavelength of 334 nm.

Compound | body weight and appearance at experiment termination ([1]; A431 xenograft nude mice) | tumor inhibition rate ([1]; A431 xenograft, 200 mg/kg oral gavage once daily (later reduced to 100 mg/kg)) | animals died ([1]; after 5 days at 200 mg/kg) | The area under the concentration-time curve (0-infinity) [2] | The area under the concentration-time curve (0-t) [2]
C#Cc1cccc(Nc2ncnc3cc(OCCOC)c(OCCOC)cc23)c1 [erlotinib, Erlotinib Hydrochloride, reference compound] | lost weight and appeared sluggish | 77.6% | 3 of 8 | – | –
C#Cc1cccc(Nc2ncnc3cc4c(cc23)OCCOCCOCCO4)c1 [Free base, 4-[(3-ethynyl-phenyl)amino]-6,7-benzo-12-crown-quinazoline, reference compound] | – | – | – | 29.36 | 28.83
